For series [1], the system named is human colon cancer HT-29 cells implanted in NCr nu/nu mice. As to conditions: ip once daily for four days; for activity in in vivo hollow fiber assay (HT-29 cell growth): 5.0-20.0 mg/kg; for toxicity in mice of the hollow fiber assay: up to 20.0 mg/kg.
Procedure: Mice were treated with the indicated doses of 1 once a day by intraperitoneal injection from day 3 to day 6 after implantation of the HT-29 cells facilitated in hollow fibers.
In Vivo Hollow Fiber Assay. […] The human colon cancer cell line HT-29 was used to evaluate 1 using procedures previously described (Mi Q et al. J. Nat. Prod 2009, 72,573-580; Pearce C J et al. Methods Mol. Biol, 2012, 944, 267-277). Eight- to nine-week-old immunodeficient NCr nu/nu mice were purchased from The Jackson Laboratory (Bar Harbor, Me., USA) and housed in microisolation cages at room temperature and a relative humidity of 50-60% under 12:12 h light-dark cycle. […] The mixture was diluted with distilled water to 13% DMSO and 25% CREMOPHOR™. The mice were injected ip once daily for four days with 1 or the positive control (paclitaxel). Each mouse was weighed daily during the study. […] The fibers were retrieved and viable cell mass was evaluated by a modified MTT (3-(4,5-dimethylthiazol-2-yl)-2,5-diphenyltetrazolium bromide) assay. The percentage of the net growth for the cells in each treatment group was calculated by subtracting the day 0 absorbance from the day 7 absorbance and dividing this difference by the net growth in the vehicle control (minus value between the day 7 and the day). Data were compared by the Student's t test, and a p value less than 0.05 was considered statistically significant.
Immunodeficient NCr nu/nu mice implanted with human colon cancer HT-29 cells placed in hollow fibers were treated once daily by 1 at doses of 5.0, 10.0, 15.0, or 20.0 mg/kg, or the vehicle control, or paclitaxel (5 mg/kg), by intraperitoneal (ip) injection tier four days. The relative FIT-29 cell growth values from all mice were calculated.
Series [2] deals with HT-29 human colon cancer cells. Kind of series: Cytotoxicity against HT-29 cells.
Procedure: (§1) The cytotoxicity of the test compounds was screened against HT-29 cells by a previously reported procedure (Ren Y et al. J. Nat. Prod 2011, 74, 1117-1125). Paclitaxel and etoposide were used as positive controls.
(§2) All arylnaphthalene lignans isolated from P. poilanet in the present study and their semi-synthetic analogues were evaluated for their cytotoxicity against HT-29 human colon cancer cells, using paclitaxel as the positive control (Table 6) (Ren Y et al. J. Nat. Prod 2011, 74, 1117-1125).
In the next series the target is topo IIα (Homo sapiens, UniProt P11388). The series can be described thus: Topoisomerase II assay (DNA cleavage/relaxation). In kind it is biochemical. As to conditions: 100 μM test compound. From the text: The formation of linear DNA was detected by separating the SDS-treated reaction products using ethidium bromide gel electrophoresis and quantified by accounting for the relationship between fluorescence and relative band intensity for open circular (OC), linear (LNR), supercoiled (SC), and relaxed (RLX) configurations of DNA.
topo IIα, sequence (P11388 whole entry): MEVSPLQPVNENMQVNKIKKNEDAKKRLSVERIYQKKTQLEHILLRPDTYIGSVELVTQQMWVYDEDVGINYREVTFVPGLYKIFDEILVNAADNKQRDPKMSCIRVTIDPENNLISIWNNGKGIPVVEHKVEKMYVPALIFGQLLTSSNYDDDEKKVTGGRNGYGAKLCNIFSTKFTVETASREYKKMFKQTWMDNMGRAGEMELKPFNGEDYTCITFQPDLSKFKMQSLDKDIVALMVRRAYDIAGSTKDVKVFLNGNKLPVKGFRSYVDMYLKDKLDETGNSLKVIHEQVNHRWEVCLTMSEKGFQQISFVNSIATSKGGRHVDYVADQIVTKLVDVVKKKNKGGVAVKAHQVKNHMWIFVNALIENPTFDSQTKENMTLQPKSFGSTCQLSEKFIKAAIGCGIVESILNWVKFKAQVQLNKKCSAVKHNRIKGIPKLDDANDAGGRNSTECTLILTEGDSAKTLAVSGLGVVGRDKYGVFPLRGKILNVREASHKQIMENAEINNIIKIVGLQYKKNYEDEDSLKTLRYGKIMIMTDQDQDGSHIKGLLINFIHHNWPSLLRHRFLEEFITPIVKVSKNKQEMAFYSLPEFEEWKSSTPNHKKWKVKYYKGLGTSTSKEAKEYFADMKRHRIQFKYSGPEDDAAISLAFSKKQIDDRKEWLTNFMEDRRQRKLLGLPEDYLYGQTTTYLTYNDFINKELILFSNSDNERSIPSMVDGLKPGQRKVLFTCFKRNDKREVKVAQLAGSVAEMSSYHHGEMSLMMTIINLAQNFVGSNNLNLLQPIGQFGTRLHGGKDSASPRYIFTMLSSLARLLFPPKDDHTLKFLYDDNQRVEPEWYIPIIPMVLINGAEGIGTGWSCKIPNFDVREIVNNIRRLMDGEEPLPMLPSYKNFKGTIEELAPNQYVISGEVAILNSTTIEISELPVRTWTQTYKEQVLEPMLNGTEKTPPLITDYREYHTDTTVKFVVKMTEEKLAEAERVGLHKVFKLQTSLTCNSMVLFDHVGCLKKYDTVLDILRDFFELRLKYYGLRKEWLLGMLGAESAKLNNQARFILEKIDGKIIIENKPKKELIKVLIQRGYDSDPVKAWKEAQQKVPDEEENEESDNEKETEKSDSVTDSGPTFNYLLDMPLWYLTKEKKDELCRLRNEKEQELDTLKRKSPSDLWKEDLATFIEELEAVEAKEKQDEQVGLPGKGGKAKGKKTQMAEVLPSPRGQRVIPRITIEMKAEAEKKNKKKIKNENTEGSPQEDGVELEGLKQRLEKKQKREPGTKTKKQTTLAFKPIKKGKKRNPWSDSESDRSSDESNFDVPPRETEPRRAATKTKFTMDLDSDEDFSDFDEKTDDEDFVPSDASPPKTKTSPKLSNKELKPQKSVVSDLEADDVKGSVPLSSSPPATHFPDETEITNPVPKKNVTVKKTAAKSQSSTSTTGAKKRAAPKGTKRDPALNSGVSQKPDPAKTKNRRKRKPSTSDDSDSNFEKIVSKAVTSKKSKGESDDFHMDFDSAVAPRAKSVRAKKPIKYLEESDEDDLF
Topoisomerase II Assay. […] The formation of linear DNA was detected by separating the SDS-treated reaction products using ethidium bromide gel electrophoresis by a modification of a previously described procedure (Hasinoff B B et al. Mol. Pharmacol. 2005, 67, 937-947). In this system, topo II-mediated catalytic conversion of supercoiled pBR322 DNA to the “relaxed” form of plasmic' DNA can also be observed. A 20 μL cleavage assay reaction mixture contained 250 ng topo IIα protein, 160 ng pBR322 plasmid DNA (NEB, Ipswich, Mass.), 1.0 mM ATP in assay buffer (10 mM Tris-HCl (pH 7.5), 50 mM KCl, 50 mM NaCl, 0.1 mM EDTA, 5 mM MgCl2, 2.5% glycerol), and 100 μM of test compounds or DMSO solvent, as indicated. Assay buffer (17 μL) and test compound/DMSO (1 μL) were mixed and allowed to sit at room temperature for 30 min after which 2 μL of topo IIα was added to initiate the reaction. Tubes were incubated at 37° C. for 15 min, and then quenched with 1% (v/v) SDS/10 mM disodium EDTA/200 mM NaCl. The mixture was treated subsequently with 0.77 mg/mL proteinase K (Sigma) at 55° C. for 60 min to digest the protein, and DNA bands were separated by electrophoresis (18 h at 2 V/cm) on an agarose gel (1.3% w/v) containing 0.7 μg/mL ethidium bromide in TAE buffer pH 8.0 (40 mM Tris base, 0.114% (v/v) glacial acetic acid, 2 mM EDTA). The DNA in the gel was imaged by its fluorescence on a Chemi-Doc XRS+ imager (Bio-Rad, Hercules, Calif.). Linear DNA was quantified by accounting for the relationship between fluorescence and relative band intensity for open circular (QC), linear (LNR), supercoiled (SC), and RLX (relaxed) configurations of DNA (Projan S J et al. Plasmid 1983, 9, 182-190), then calculating % of LNR from the total DNA content in each lane.

Series [3] has as its system CCD-112CoN normal human colon cells. The series can be described thus: Cytotoxicity against CCD-112CoN cells. As to conditions: for pIC50: read-out: IC50 values toward the CCD-112 CoN cells.
Source text: Following a previous procedure (Still P C et al. J. Nat. Prod. 2013, 76, 243-249) and the method for screening cytotoxicity towards HT-29 cells mentioned above, the cytotoxicity of the samples was screened against CCD-112CoN normal human colon cells.
Another series relates to HT-29 cells. The series can be described thus: Annexin V staining apoptosis assay. As to conditions: for HT-29 cell apoptosis at the late-stage / HT-29 cells undergoing early apoptosis: 72 h.
In series [4] the test system is HT-29 human colon cancer cells.
Procedure: as §1, §2
Setting [5] is: read-out: IC50 values toward the HT-29 cells, Table 6, triplicate, two independent experiments.
Where [6] appears, read: Homo sapiens, HT-29, read-out: IC50 values toward the HT-29 cells.

SMILES strings stand for the structures. pEC50, pIC50: −log10 of the molar value. Entries after “also recorded” stand apart in the source; their conditions may differ. Like-named read-outs stand apart in the source and are kept apart here.

Consider `COc1cc2c(O[C@@H]3OC[C@H](OC(C)=O)[C@H](OC(C)=O)[C@H]3O)c3c(c(-c4ccc5c(c4)OCO5)c2cc1OC)C(=O)OC3` [Compound 1, 7-O-[(3,4-di-O-acetyl)-α-L-arabinopyranosyl] diphyllin], for which the results for the “activity in in vivo hollow fiber assay (HT-29 cell growth)” value in series [1] and in series [1] (listed as Phyllanthusmin D) were “showed activity; also recorded: dose dependent tendency; also recorded: active; also recorded: antitumor efficacy in vivo” and “active”, respectively. Besides, the entries for the “toxicity in mice of the hollow fiber assay” value in series [1] and in series [1] (listed as Phyllanthusmin D) were “no signs of toxicity; also recorded: No gross toxicity; also recorded: without any gross toxicity” and “no signs of gross toxicity”, respectively. Moreover, the pEC50 in series [2] (read-out: ED50, toxicity towards HT-29 cells, natural samples) was 6.77. Moreover, the pIC50 (in general, the negative decadic logarithm of the IC50, by convention in mol/L) in series [2] (read-out: IC50, cytotoxicity toward HT-29 cells) was 6.77; in series [3] (Table 6) it was less than 4.00. Also, the “topo IIα inhibition (in words)” value at topo IIα is listed as “did not inhibit DNA topoisomerase IIα activity; also recorded: not topo Ha inhibitors; also recorded: no inhibitory activity against topo IIα; also recorded: not topo IIα inhibitors”. Further, in series [3], the “cytotoxicity toward CCD-112CoN human normal colon cells (in words)” value is given as “non-cytotoxic”. The “HT-29 cell apoptosis induction (in words)” value in the series with HT-29 cells was “inducing tumor cell apoptosis; also recorded: induction of tumor cell apoptosis; also recorded: can induce HT-29 cell apoptosis”. Besides, the results for the “HT-29 cell apoptosis at the late-stage” value in the series with HT-29 cells (1 μM) and in the series with HT-29 cells (5 μM) were 27.3% and 38.0%, respectively. Also, the “HT-29 cells undergoing early apoptosis” value in the series on HT-29 cells (1 μM) was found to be 28.2%; in the series with HT-29 cells (5 μM) it was 30.3%.

Regarding `COc1cc2c(O[C@@H]3OC[C@H](O)[C@H](OC(C)=O)[C@H]3O)c3c(c(-c4ccc5c(c4)OCO5)c2cc1OC)C(=O)OC3` [Compound 2, 7-O-[(3-O-acetyl)-α-L-arabinopyranosyl] diphyllin], in series [2] (setting [5]), the pIC50 was 5.74.

With `COc1cc2c(O[C@@H]3OC[C@H](OC(C)=O)[C@H](O)[C@H]3O)c3c(c(-c4ccc5c(c4)OCO5)c2cc1OC)C(=O)OC3` [Compound 3, Phyllanthusmin B], the “cytotoxicity toward HT-29 cells (in words)” value in series [4] is listed as “cytotoxic”. Besides, the negative logarithm of the IC50 (pIC50) in series [2] (setting [5]) was 5.74.

`COc1cc2c(O[C@@H]3O[C@H](CO)[C@@H](O)[C@H](O)[C@H]3O)c3c(c(-c4ccc5c(c4)OCO5)c2cc1OC)C(=O)OC3` [Compound 5, Cleistanthin B]: in series [2] (setting [5]), the pIC50 was less than 5.00.

As to `COc1cc2c(OC)c3c(c(-c4ccc5c(c4)OCO5)c2cc1O)C(=O)OC3` [Compound 6, Phyllanthusmin A], the “cytotoxicity toward HT-29 cells (in words)” value in series [4] is “inactive”. Further, the pIC50 in series [2] (setting [5]) is less than 5.00.

For `COc1cc2c(O)c3c(c(-c4ccc5c(c4)OCO5)c2cc1OC)C(=O)OC3` [Compound 8, Diphyllin], the pIC50 in series [2] (setting [6]) was 5.12.

For the molecule `COc1cc([C@@H]2c3cc4c(cc3[C@@H](O[C@@H]3O[C@@H]5CO[C@@H](C)O[C@H]5[C@H](O)[C@H]3O)[C@H]3COC(=O)[C@H]23)OCO4)cc(OC)c1O` [etoposide, reference compound], in series [2] (setting [6]), the pIC50 is less than 5.00. Moreover, in the series with HT-29 cells (1 μM), the “HT-29 cell apoptosis at the late-stage” value is recorded as 19.8% and the “HT-29 cells undergoing early apoptosis” value is reported as 12.9%. Moreover, in the series on HT-29 cells (5 μM), the “HT-29 cell apoptosis at the late-stage” value is given as 25.3% and the “HT-29 cells undergoing early apoptosis” value is 12.5%.

On to `CC(=O)O[C@H]1C(=O)[C@@]2(C)[C@H]([C@H](OC(=O)c3ccccc3)[C@]3(O)C[C@H](OC(=O)[C@H](O)[C@@H](NC(=O)c4ccccc4)c4ccccc4)C(C)=C1C3(C)C)[C@]1(OC(C)=O)CO[C@@H]1C[C@@H]2O` [paclitaxel, reference compound], for which the negative logarithm of the IC50 (pIC50) is 9.00 in series [2] (setting [6]) and 4.64 in series [3] (Homo sapiens, CCD-112CoN).

(Values after US20170119806A1, “[…] LACTONE DERIVATIVES AND METHODS OF MAKING AND USING THEREOF” (OHIO STATE INNOVATION FOUNDATION, priority 2014, published 2017).)
